# Test results as given in US20050019923A1, “Dendrimers for use in targeted delivery” (priority 2001, published 2005).
# Tested on: A431 cell line
# Assay: In vitro cytotoxicity assay (MTT)
# Assay type: cell-based, human
# Details: 4 h exposure, 72 h incubation
# Protocol: A human epidermoid carcinoma cell line (A431, ATCC CRL-1555) was maintained in Dulbecco's minimum essential medium (DMEM) supplemented with 10% foetal calf serum (FCS) and 2 mM glutamine (GibcoBRL, UK) at 10% CO2 and 37° C.
# Polypropylenimine dendrimer/dendrimer derivative formulation cytotoxicity was assessed by the measurement of the IC50 in a standard MTT (3-[4,5-dimethylthiazol-2-yl]-2,5-diphenyltetrazolium bromide thiazolyl blue—indicator dye) assay. Briefly, 96 well microtitre plates were seeded with 5000 cells per well and incubated for 24 hrs. Dilutions of the dendrimer/dendrimer—DNA formulations (100 μl) in tissue culture medium (Opti-Mem) were incubated with the cells for 4 h. The samples were then replaced with fresh DMEM daily and incubated for 72 h. After this period the indicator dye (50 μl, 50 mg ml^−1) was added to each well and incubated with the cells for 4 h in the dark. The medium and indicator dye were then removed and the cells lysed with dimethylsulphoxide (200 μl). After addition of Sorensen's glycine buffer (25 μl) the absorption was measured at 570 nm. Values were expressed as a percentage of the control to which no vesicles were added.
smiles,measurement,value
"CCCCCCCC/C=C\CCCCCCCC(=O)OCC(C[N+](C)(C)C)OC(=O)CCCCCCC/C=C\CCCCCCCC.COS(=O)(=O)[O-] (stereo not shown) [DOTAP, N-[1-(2,3-dioleoyloxy)propyl]-N,N,N-trimethylammonium methylsulphate]","IC50, in vitro cytotoxicity",62 mg/L
